The target of assay [1] is T1, NK3 (Homo sapiens, UniProt P29371).
T1 sequence (P29371 1-465): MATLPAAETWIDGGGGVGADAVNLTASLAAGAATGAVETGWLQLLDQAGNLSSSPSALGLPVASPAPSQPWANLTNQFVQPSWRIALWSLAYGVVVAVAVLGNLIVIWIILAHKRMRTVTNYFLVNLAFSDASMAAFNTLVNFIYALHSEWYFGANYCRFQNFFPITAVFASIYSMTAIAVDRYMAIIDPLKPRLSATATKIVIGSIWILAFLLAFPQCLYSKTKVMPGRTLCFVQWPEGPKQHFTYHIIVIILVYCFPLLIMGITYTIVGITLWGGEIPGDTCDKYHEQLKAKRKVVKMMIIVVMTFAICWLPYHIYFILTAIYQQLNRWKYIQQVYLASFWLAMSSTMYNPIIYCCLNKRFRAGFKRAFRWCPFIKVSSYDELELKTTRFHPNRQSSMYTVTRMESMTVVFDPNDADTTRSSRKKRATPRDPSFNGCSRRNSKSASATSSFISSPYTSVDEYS
The assay is described as follows: Signal transduction (ST), intracellular Ca++ (FLIPR), NK3. Format: cell-based. As to conditions: read-out: pIC50 NK3 (converted). The procedure:
[The procedure below names another target; the source lists this target under the same test.] (§1) This test evaluates in vitro functional NK1 antagonistic activity. For the measurements of intracellular Ca^++ concentrations the cells were grown on 96-well (black wall/transparent bottom) plates from Costar for 2 days until they reached confluence. The cells were loaded with 2 μM Fluo3 in DMEM containing 0.1% BSA and 2.5 mM probenecid for 1 h at 37° C. They were washed 3× with a Krebs buffer (140 mM NaCl, 1 mM MgCl2×6H2O, 5 mM KCl, 10 mM glucose, 5 mM HEPES; 1.25 mM CaCl2; pH 7.4) containing 2.5 mM probenecid and 0.1% BSA (Ca^++-buffer). The cells were preincubated with a concentration range of antagonists for 20 min at RT and Ca^++-signals after addition of the agonists were measured in a Fluorescence Image Plate Reader (FLIPR from Molecular Devices, Crawley, England). The peak of the Ca^++-transient was considered as the relevant signal and the mean values of corresponding wells were analysed as described below.
The sigmoidal dose response curves were analysed by computerised curve-fitting, using the GraphPad Program. […] For antagonist responses the IC50-value was calculated using non-linear regression.
The last columns indicates—without being limited therefore—for which the compounds might be most suitable. Of course, since for some neurokinin receptors no data was determined, it is obvious that these compounds might be attributed to another suitable use.

In assay [2] the target is NK1 (Homo sapiens, UniProt P25103). The assay is described as follows: Signal transduction (ST), intracellular Ca++ (FLIPR), NK1 antagonistic activity. Format: cell-based. As to conditions: read-out: pIC50 NK1 (converted). The procedure:
as §1
The sigmoidal dose response curves were analysed by computerised curve-fitting, using the GraphPad Program. […] For antagonist responses the IC50-value was calculated using non-linear regression. […]

Sequence of NK1 (P25103 whole entry): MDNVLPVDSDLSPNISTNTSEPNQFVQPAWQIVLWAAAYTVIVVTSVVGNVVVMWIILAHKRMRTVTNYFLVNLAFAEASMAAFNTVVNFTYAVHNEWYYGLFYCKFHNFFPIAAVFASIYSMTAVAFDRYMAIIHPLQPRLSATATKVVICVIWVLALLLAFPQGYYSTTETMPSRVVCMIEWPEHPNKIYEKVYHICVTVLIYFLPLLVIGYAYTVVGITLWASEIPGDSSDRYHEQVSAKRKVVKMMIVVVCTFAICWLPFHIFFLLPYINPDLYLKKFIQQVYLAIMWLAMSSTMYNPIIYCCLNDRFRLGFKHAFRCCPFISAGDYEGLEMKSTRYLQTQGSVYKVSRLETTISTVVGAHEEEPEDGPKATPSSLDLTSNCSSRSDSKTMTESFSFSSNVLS

As for `O=C(C1COc2ccccc2O1)N1CCC(N2CCN([C@H]3CCN(C(=O)c4cc(C(F)(F)F)cc(C(F)(F)F)c4)[C@H](Cc4ccccc4)C3)CC2)C1` (stereo partly drawn) [Compound 98], the figures for the IC50 in assay [1] and in assay [2] were 5010 nM and 12.6 nM, respectively.

Regarding `O=C(C1CCOC1)N1CCC(N2CCN(C3CCN(C(=O)c4cc(C(F)(F)F)cc(C(F)(F)F)c4)C(Cc4ccc(F)c(F)c4)C3)CC2)C1` (single isomer, unassigned) [Compound 242], the IC50 in assay [1] was 2510 nM; in assay [2] it was 10 nM.

Consider `O=C(C1COC2CCCCC2O1)N1CCC(N2CCN([C@H]3CCN(C(=O)c4cc(C(F)(F)F)cc(C(F)(F)F)c4)[C@H](Cc4ccccc4)C3)CC2)C1` (stereo partly drawn) [Compound 99], for which the IC50 in assay [1] was 3160 nM; in assay [2] it was 7.94 nM.

Consider `CC(C)(C)OC(=O)N1CCC[C@@H]1C(=O)N1CCC(N2CCN([C@H]3CCN(C(=O)c4cc(C(F)(F)F)cc(C(F)(F)F)c4)[C@H](Cc4ccccc4)C3)CC2)C1` (stereo partly drawn) [Compound 189], for which the figures for the IC50 in assay [1] and in assay [2] were 251 nM and 7.94 nM, respectively.

Turning to `O=C1CC[C@@H](C(=O)N2CCC(N3CCN([C@H]4CCN(C(=O)c5cc(C(F)(F)F)cc(C(F)(F)F)c5)[C@H](Cc5ccccc5)C4)CC3)C2)O1` (stereo partly drawn) [Compound 386], the IC50 in assay [1] is 5010 nM; in assay [2], 20 nM.

For `O=C(c1ccccc1Cl)N1CCC(N2CCN(C3CCN(C(=O)c4cc(C(F)(F)F)cc(C(F)(F)F)c4)C(Cc4ccccc4)C3)CC2)C1` (single isomer, unassigned) [Compound 160], the IC50 in assay [1] is 398 nM; in assay [2], 10 nM.

For the compound `O=C(c1cc2ccccc2o1)N1CCC(N2CCN([C@H]3CCN(C(=O)c4cc(C(F)(F)F)cc(C(F)(F)F)c4)[C@H](Cc4ccccc4)C3)CC2)C1` (stereo partly drawn) [Compound 62], the IC50 in assay [1] was 3980 nM; in assay [2] it was 63.1 nM.

Regarding `O=C(C(c1ccccc1)N1CCCC1)N1CCC(N2CCN(C3CCN(C(=O)c4cc(C(F)(F)F)cc(C(F)(F)F)c4)C(Cc4ccccc4)C3)CC2)C1` (stereo not drawn) [Compound 108], the IC50 in assay [1] is 2510 nM; in assay [2], 31.6 nM.

For `O=C(C1CCOC1)N1CCC(N2CCN(C3CCN(C(=O)c4cc(C(F)(F)F)cc(C(F)(F)F)c4)C(Cc4ccccc4)C3)CC2)C1` (single isomer, unassigned) [Compound 139], the IC50 in assay [1] is 6310 nM; in assay [2], 158 nM.

As to `O=C(c1cnc2ccccc2n1)N1CCC(N2CCN([C@H]3CCN(C(=O)c4cc(C(F)(F)F)cc(C(F)(F)F)c4)[C@H](Cc4ccccc4)C3)CC2)C1` (stereo partly drawn) [Compound 60], the IC50 is 2510 nM in assay [1] and 31.6 nM in assay [2].

`O=C(C1CCOC1)N1CCC(N2CCN(C3CCN(C(=O)c4cc(C(F)(F)F)cc(C(F)(F)F)c4)C(Cc4ccc(F)cc4)C3)CC2)C1` (stereo not drawn) [Compound 274]: the IC50 in assay [1] is 3980 nM; in assay [2], 10 nM.

Turning to `Cc1nnsc1C(=O)N1CCC(N2CCN(C3CCN(C(=O)c4cc(C(F)(F)F)cc(C(F)(F)F)c4)C(Cc4ccccc4)C3)CC2)C1` (single isomer, unassigned) [Compound 381], the IC50 is 2510 nM in assay [1] and 5.01 nM in assay [2].

Consider `COCCC(=O)N1CC[C@H](N2CCN([C@H]3CCN(C(=O)c4cc(C(F)(F)F)cc(C(F)(F)F)c4)[C@H](Cc4ccccc4)C3)CC2)C1` [Compound 413], for which the results for the IC50 in assay [1] and in assay [2] were 2000 nM and 31.6 nM, respectively.

Take `O=C(C(=O)N1CCC(N2CCN(C3CCN(C(=O)c4cc(C(F)(F)F)cc(C(F)(F)F)c4)C(Cc4ccccc4)C3)CC2)C1)c1ccco1` (single isomer, unassigned) [Compound 191]: the IC50 in assay [1] was 2510 nM; in assay [2], 15.8 nM.

Regarding `N#Cc1ccccc1C(=O)N1CCC(N2CCN(C3CCN(C(=O)c4cc(C(F)(F)F)cc(C(F)(F)F)c4)C(Cc4ccccc4)C3)CC2)C1` (stereo not drawn) [Compound 195], the IC50 in assay [1] was 398 nM; in assay [2], 12.6 nM.

As for `COC(C(=O)N1CCC(N2CCN(C3CCN(C(=O)c4cc(C(F)(F)F)cc(C(F)(F)F)c4)C(Cc4ccccc4)C3)CC2)C1)c1ccccc1` (stereo not drawn) [Compound 109], the values for the IC50 in assay [1] and in assay [2] were 7940 nM and 12.6 nM, respectively.

Turning to `Cc1nnsc1C(=O)N1CCC(N2CCN(C3CCN(C(=O)c4cc(C(F)(F)F)cc(C(F)(F)F)c4)C(Cc4ccc(F)c(F)c4)C3)CC2)C1` (single isomer, unassigned) [Compound 236], the IC50 in assay [1] is 5010 nM; in assay [2] it was 3.98 nM.

In the case of `O=C(C(c1ccccc1)n1cc(Br)cn1)N1CCC(N2CCN([C@H]3CCN(C(=O)c4cc(C(F)(F)F)cc(C(F)(F)F)c4)[C@H](Cc4ccccc4)C3)CC2)C1` (stereo partly drawn) [Compound 111], the IC50 in assay [1] is 6310 nM; in assay [2], 79.4 nM.

For `CN(C)C(=O)N1CCC(N2CCN([C@H]3CCN(C(=O)c4cc(C(F)(F)F)cc(C(F)(F)F)c4)[C@H](Cc4ccccc4)C3)CC2)C1` (stereo partly drawn) [Compound 145], the values for the IC50 in assay [1] and in assay [2] were 2000 nM and 12.6 nM, respectively.

As to `O=C(C1CCC1)N1CCC(N2CCN([C@H]3CCN(C(=O)c4cc(C(F)(F)F)cc(C(F)(F)F)c4)[C@H](Cc4ccccc4)C3)CC2)C1` (stereo partly drawn) [Compound 179], the IC50 in assay [1] was 1580 nM; in assay [2] it was 6.31 nM.

As for `N#Cc1cccc(C(=O)N2CCC(N3CCN(C4CCN(C(=O)c5cc(C(F)(F)F)cc(C(F)(F)F)c5)C(Cc5ccccc5)C4)CC3)C2)c1` (single isomer, unassigned) [Compound 192], the IC50 is 631 nM in assay [1] and 10 nM in assay [2].

As to `Cc1nnsc1C(=O)N1CCC(N2CCN(C3CCN(C(=O)c4cc(C(F)(F)F)cc(C(F)(F)F)c4)C(Cc4ccc(Cl)c(Cl)c4)C3)CC2)C1` (stereo not drawn) [Compound 161], the values for the IC50 in assay [1] and in assay [2] were 3160 nM and 12.6 nM, respectively.

Consider `O=C(c1cccs1)N1CCC(N2CCN([C@H]3CCN(C(=O)c4cc(C(F)(F)F)cc(C(F)(F)F)c4)[C@H](Cc4ccccc4)C3)CC2)C1` (stereo partly drawn) [Compound 42], for which the IC50 in assay [1] is 251 nM; in assay [2], 25.1 nM.

As for `O=C(C1CCCO1)N1CCC(N2CCN([C@H]3CCN(C(=O)c4cc(C(F)(F)F)cc(C(F)(F)F)c4)[C@H](Cc4ccccc4)C3)CC2)C1` (stereo partly drawn) [Compound 97], the IC50 is 2510 nM in assay [1] and 10 nM in assay [2].

With `COCCC(=O)N1CC[C@@H](N2CCN([C@H]3CCN(C(=O)c4cc(C(F)(F)F)cc(C(F)(F)F)c4)[C@H](Cc4ccccc4)C3)CC2)C1` [Compound 414], the IC50 is 631 nM in assay [1] and 39.8 nM in assay [2].

Consider `O=C(c1cc(C(F)(F)F)cc(C(F)(F)F)c1)N1CC[C@H](N2CCN(C3CCN(c4nc5ccccc5s4)C3)CC2)C[C@H]1Cc1ccccc1` (stereo partly drawn) [Compound 7], for which the results for the IC50 in assay [1] and in assay [2] were 316 nM and 200 nM, respectively.

For the compound `CC(C)Oc1cccc(C(=O)N2CCC(N3CCN([C@H]4CCN(C(=O)c5cc(C(F)(F)F)cc(C(F)(F)F)c5)[C@H](Cc5ccccc5)C4)CC3)C2)c1` (stereo partly drawn) [Compound 15], the values for the IC50 in assay [1] and in assay [2] were 2000 nM and 31.6 nM, respectively.

As for `O=C(c1cc2ccccc2s1)N1CCC(N2CCN([C@H]3CCN(C(=O)c4cc(C(F)(F)F)cc(C(F)(F)F)c4)[C@H](Cc4ccccc4)C3)CC2)C1` (stereo partly drawn) [Compound 63], the IC50 is 3160 nM in assay [1] and 126 nM in assay [2].

Take `O=C(C1CC1)N1CCC(N2CCN(C3CCN(C(=O)c4cc(C(F)(F)F)cc(C(F)(F)F)c4)C(Cc4ccc(F)cc4)C3)CC2)C1` (stereo not drawn) [Compound 277]: the IC50 is 2510 nM in assay [1] and 10 nM in assay [2].

As for `CC1(C)OC(=O)[C@@H](CC(=O)N2CCC(N3CCN([C@H]4CCN(C(=O)c5cc(C(F)(F)F)cc(C(F)(F)F)c5)[C@H](Cc5ccccc5)C4)CC3)C2)O1` (stereo partly drawn) [Compound 392], the IC50 was 7940 nM in assay [1] and 251 nM in assay [2].

Take `O=C(C1CC1)N1CCC(N2CCN(C3CCN(C(=O)c4cc(C(F)(F)F)cc(C(F)(F)F)c4)C(Cc4ccccc4)C3)CC2)C1` (single isomer, unassigned) [Compound 70]: the IC50 in assay [1] is 501 nM; in assay [2], 12.6 nM.

Regarding `O=C(c1cc(C(F)(F)F)cc(C(F)(F)F)c1)N1CCC(N2CCN(C3CCN(C(=O)C(F)(F)F)C3)CC2)CC1Cc1ccccc1` (stereo not drawn) [Compound 203], the IC50 in assay [1] is 1000 nM; in assay [2], 20 nM.

As for `CC(C)C(=O)N1CCC(N2CCN([C@H]3CCN(C(=O)c4cc(C(F)(F)F)cc(C(F)(F)F)c4)[C@H](Cc4ccccc4)C3)CC2)C1` (stereo partly drawn) [Compound 199], the IC50 in assay [1] is 1580 nM; in assay [2], 10 nM.
